Measurements as given in ChEMBL document CHEMBL1201862, “PubChem BioAssay data set” (2004).
“And” between values parts separate entries of the source, which are not always exact repeats. Equal entries are not always repeated. Structures can show the parent of a compound that is named as a salt. The source made the active and inactive calls.

Tests used:
Mu-type opioid receptor = Mu-type opioid receptor (Homo sapiens, UniProt P35372); assay type: functional, cell-based;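 also: U2OS cells with beta-arrestin recruitment to OPRM1 by beta-gal complementation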
[1] = molecular target: 5-hydroxytryptamine receptor 2A (Mus musculus, UniProt P35363); assay type: functional, cell-based;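 also: CHO-K1 cells with tagged receptor and beta-arrestin; agonist potency measured as compound-induced activation of the receptor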
[2] = molecular target: T1, Corticotropin-releasing factor receptor 2/Corticotropin-releasing factor-binding protein (Homo sapiens, UniProt P24387+Q13324); test: Dose Response confirmation of uHTS hits for small molecule antagonists of the CRF-binding protein and CRF-R2 receptor complex.; assay type: functional; conditions: read-out: IC50_Mean
T1 sequence (Q13324 whole entry): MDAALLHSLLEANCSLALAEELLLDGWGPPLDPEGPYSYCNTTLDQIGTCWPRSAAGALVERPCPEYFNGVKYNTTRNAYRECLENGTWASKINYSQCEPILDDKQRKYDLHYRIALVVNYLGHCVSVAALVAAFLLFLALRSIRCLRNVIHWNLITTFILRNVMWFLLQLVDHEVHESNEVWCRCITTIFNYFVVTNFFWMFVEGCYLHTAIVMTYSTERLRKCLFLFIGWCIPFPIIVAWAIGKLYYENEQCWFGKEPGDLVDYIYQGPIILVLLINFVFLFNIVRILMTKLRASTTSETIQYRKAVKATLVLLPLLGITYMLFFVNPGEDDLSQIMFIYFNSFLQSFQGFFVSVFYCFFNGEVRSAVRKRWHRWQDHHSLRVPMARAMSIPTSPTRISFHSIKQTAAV
T1 sequence (P24387 whole entry): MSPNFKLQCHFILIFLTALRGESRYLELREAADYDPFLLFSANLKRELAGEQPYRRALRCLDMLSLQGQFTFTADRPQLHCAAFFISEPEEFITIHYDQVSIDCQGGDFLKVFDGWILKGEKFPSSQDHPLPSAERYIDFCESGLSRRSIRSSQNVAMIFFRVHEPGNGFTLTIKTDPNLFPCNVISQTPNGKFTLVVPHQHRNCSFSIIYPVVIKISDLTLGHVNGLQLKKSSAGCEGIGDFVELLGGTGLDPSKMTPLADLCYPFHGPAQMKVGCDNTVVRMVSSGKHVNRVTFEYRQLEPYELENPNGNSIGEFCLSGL

[3] = molecular target: T1, Corticotropin-releasing factor receptor 2/Corticotropin-releasing factor-binding protein; test: activators of CRF receptor 2 with binding protein – uHTS hits, confirmation (AID 602473); assay type: functional; conditions: read-out: EC50_Mean
[4] = blockers of CRF-binding protein–CRF-R2 complex – cell-based, uHTS hits, 384-well, dose response (AID 651639); assay type: functional, Homo sapiens; conditions: read-out: IC50_Mean
cells [5] = assay type: functional, cell-based
[6] = molecular target: T2, Trace amine-associated receptor 1 (Homo sapiens, UniProt Q96RJ0); test: Fluorescence-based cell-based high throughput dose response assay to identify agonists of the human trace amine associated receptor 1 (TAAR1).; assay type: functional
T2 sequence (Q96RJ0 whole entry): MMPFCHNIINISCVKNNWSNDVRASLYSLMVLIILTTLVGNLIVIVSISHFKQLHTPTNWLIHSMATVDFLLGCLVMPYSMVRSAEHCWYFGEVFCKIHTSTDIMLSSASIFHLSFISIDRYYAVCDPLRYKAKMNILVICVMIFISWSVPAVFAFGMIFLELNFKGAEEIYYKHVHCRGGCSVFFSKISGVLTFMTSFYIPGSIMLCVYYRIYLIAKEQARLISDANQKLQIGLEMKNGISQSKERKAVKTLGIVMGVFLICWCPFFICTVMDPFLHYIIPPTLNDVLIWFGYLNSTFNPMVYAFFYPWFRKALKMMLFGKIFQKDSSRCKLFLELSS

[7] = molecular target: T2, Trace amine-associated receptor 1; test: Counterscreen for agonists of the human trace amine associated receptor 1 (hTAAR1): Fluorescence-based cell-based high throughput dose response assay to identify hTAAR1 agonist that also desensitize TAAR1 receptor response.; assay type: functional
cells [8] = assay type: functional, cell-based; remark: listed apart in the source
Albumin = Albumin (Bos taurus, UniProt P02769); test: Counterscreen for inhibitors of T-cell receptor (TCR)-CD3 interaction: Fluorescence-based biochemical high throughput dose response assay to identify inhibitors of T-cell receptor (TCR)-CD3 interaction using a TAMRA-labeled BSA probe.; assay type: functional
[9] = viability loss in HeLa cells – cytotoxicity control for MgcRacGAP inhibitor project, dose response (AID 624300); assay type: functional
[10] = molecular target: T3, Rac GTPase-activating protein 1 (Homo sapiens, UniProt Q9H0H5); test: blockers of MgcRacGAP-driven Rac1 GTP hydrolysis – biochemical, ADP Hunter fluorescence, primary and confirmatory, confirmation (AID 624330); assay type: functional
T3 sequence (Q9H0H5 whole entry): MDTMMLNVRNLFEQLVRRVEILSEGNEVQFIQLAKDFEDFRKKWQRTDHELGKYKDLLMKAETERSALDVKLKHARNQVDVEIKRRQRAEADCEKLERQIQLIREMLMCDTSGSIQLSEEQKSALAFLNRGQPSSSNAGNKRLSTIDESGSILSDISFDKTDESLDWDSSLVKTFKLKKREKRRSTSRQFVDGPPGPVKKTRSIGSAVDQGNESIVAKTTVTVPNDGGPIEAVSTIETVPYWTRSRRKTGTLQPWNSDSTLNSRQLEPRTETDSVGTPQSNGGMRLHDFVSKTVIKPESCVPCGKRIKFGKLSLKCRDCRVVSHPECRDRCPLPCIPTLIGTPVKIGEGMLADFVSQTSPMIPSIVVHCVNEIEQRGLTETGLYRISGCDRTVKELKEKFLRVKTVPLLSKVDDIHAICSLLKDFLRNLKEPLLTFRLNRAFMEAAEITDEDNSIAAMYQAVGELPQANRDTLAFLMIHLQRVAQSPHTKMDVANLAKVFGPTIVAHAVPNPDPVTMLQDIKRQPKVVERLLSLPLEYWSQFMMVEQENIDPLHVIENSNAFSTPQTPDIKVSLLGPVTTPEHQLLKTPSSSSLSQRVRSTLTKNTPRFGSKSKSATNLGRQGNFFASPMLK

[11] = molecular target: Disintegrin and metalloproteinase domain-containing protein 17 (Homo sapiens, UniProt P78536); test: exosite inhibitors of ADAM17, dose response, biochemical (AID 743260)
[12] = inhibition of ADAM10 peptide cleavage – biochemical, FRET peptide substrate, recombinant human ADAM10, selectivity assay for ADAM17 exosite inhibitor project, dose response (AID 743259);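 also: ADAM10 enzyme cleaving a FRET peptide substrate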
[13] = Luminescence Cell-Based Dose Response HTS to Identify Activators of Luciferase Translation or Activity in H4 […] Cells. [Related pubchem assays: 1829 (Project Summary), 1814 (Primary HTS)]; assay type: functional
H4 = test: Luminescence Cell-Based Dose Response HTS to Identify Activators of 5'UTR Stem-Loop Driven Prion Protein mRNA Translation in H4 Neuroglioblastoma Cells. [Related pubchem assays: 1829 (Project Summary), 1814 (Primary HTS)]; assay type: functional; conditions: Homo sapiens
Large T antigen = Large T antigen (Simian virus 40, UniProt P03070); assay type: functional, Betapolyomavirus macacae;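 also: Confirmatory-stage PubChem screen for compounds that inhibit SV40 T antigen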
[14] = Luminescence-based cell-based high throughput dose response assay to identify activators of the DAF-12 from the parasite S. stercoralis (ssDAF-12).; assay type: functional
[15] = molecular target: T4, Oxysterols receptor LXR-beta (Homo sapiens, UniProt P55055); test: LXR agonists, Gal4 luciferase reporter, dose response, counter-screen for ssDAF-12 agonist project, cell-based, luminescence, HEK293, S. stercoralis campaign (AID 720737); assay type: functional; conditions: read-out: IC50 (the source's name)
T4 sequence (P55055 whole entry): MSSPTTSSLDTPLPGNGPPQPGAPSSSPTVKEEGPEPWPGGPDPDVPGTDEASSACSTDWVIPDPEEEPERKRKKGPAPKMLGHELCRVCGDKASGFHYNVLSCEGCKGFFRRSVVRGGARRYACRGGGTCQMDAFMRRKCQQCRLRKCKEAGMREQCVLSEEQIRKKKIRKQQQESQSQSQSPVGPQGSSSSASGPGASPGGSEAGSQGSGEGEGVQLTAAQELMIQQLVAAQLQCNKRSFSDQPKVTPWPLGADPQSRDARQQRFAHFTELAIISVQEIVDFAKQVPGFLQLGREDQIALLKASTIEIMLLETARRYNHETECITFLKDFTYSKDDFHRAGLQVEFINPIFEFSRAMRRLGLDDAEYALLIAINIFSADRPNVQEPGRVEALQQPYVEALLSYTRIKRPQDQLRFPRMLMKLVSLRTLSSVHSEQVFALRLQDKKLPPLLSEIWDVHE

[16] = NIH-3T3 fibroblast cytotoxicity, dose response, cytotoxicity control, cell-based, fluorescence, Alamar Blue, secondary assay (AID 2327); assay type: functional;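 also: NIH-3T3 mouse fibroblasts cultured with fluconazole at 8 µg/mL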
Aminopeptidase N = molecular target: T5, Aminopeptidase N (Plasmodium falciparum FcB1/Columbia, UniProt O96935); test: malaria alanyl aminopeptidase activity blockers – biochemical, fluorogenic H-Leu-NHMec substrate, 1536-well (AID 1445); parameters: species or system Plasmodium falciparum 3D7, 3D7
T5 sequence (O96935 whole entry): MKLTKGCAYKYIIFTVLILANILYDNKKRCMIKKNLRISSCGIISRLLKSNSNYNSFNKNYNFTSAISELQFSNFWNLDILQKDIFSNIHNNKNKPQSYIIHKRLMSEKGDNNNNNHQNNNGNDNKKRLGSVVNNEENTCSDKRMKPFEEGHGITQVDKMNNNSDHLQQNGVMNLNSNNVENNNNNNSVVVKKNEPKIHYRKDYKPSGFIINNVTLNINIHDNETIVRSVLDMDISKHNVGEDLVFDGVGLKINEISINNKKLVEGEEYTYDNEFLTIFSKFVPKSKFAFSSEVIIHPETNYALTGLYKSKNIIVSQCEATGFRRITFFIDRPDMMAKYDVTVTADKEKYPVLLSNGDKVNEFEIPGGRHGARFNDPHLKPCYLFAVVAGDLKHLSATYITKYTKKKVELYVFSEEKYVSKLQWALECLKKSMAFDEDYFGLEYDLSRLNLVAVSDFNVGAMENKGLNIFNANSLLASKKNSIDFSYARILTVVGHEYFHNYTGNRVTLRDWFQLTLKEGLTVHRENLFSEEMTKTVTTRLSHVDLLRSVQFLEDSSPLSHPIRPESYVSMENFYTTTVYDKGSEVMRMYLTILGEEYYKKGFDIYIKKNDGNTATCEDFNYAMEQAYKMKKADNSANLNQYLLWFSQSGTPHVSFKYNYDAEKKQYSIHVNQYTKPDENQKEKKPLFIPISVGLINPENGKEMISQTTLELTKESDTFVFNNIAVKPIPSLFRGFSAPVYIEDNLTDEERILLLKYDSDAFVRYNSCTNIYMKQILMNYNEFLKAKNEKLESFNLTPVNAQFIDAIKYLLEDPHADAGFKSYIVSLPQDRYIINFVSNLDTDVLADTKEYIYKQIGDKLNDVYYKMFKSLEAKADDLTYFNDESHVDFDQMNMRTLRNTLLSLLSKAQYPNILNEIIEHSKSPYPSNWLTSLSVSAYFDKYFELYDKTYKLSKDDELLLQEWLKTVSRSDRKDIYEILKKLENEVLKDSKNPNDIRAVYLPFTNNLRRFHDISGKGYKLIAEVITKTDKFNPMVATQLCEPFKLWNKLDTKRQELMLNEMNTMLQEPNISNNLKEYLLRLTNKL

cells [17] = assay type: functional, cell-based; remark: listed apart in the source
[18] = fluconazole-exposed Candida albicans growth modulators – fluorescence, retest, confirmation (AID 2467); assay type: functional, cell-based
cells [19] = assay type: functional, cell-based; remark: listed apart in the source

Chain of Mu-type opioid receptor (P35372 whole entry): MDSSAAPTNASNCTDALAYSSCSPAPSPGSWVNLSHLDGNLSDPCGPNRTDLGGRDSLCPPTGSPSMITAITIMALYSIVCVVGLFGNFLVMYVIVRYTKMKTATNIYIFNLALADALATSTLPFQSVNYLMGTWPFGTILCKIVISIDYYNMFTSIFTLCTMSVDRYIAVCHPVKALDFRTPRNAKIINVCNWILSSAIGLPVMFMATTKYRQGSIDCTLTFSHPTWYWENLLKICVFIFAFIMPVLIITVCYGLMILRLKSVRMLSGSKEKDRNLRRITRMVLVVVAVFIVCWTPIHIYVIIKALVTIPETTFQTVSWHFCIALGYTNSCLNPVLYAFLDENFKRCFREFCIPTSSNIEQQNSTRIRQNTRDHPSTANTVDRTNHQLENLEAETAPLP
Chain of 5-hydroxytryptamine receptor 2A (P35363 whole entry): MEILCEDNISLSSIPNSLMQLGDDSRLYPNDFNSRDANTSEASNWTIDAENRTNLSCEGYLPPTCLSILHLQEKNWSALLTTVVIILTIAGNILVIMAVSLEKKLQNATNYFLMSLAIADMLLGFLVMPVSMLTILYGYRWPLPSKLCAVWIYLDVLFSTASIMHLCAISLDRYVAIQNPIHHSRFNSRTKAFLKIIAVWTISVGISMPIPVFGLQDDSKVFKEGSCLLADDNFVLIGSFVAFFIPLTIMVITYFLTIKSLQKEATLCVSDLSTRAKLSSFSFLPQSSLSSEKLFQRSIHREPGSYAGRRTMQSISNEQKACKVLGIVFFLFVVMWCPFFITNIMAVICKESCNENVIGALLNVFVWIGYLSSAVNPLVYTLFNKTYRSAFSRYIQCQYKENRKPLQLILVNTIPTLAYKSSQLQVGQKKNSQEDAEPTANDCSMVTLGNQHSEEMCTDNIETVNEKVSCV
Chain of Albumin (P02769 whole entry): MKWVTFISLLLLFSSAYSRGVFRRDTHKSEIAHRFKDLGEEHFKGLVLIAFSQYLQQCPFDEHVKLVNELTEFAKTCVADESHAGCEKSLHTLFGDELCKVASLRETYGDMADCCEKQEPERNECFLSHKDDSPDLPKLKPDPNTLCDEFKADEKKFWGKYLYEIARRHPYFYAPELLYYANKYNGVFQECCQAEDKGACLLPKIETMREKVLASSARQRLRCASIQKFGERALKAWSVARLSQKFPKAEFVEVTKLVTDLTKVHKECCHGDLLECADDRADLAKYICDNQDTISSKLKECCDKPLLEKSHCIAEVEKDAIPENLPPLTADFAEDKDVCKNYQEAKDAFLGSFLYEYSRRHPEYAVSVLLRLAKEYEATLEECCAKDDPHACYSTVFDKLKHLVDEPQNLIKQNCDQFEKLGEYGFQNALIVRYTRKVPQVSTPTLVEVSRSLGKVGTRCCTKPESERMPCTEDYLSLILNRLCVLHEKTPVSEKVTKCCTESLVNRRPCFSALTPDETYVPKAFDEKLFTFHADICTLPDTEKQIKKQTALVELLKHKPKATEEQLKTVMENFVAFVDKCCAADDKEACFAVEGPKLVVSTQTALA
Chain of Large T antigen (P03070 whole entry): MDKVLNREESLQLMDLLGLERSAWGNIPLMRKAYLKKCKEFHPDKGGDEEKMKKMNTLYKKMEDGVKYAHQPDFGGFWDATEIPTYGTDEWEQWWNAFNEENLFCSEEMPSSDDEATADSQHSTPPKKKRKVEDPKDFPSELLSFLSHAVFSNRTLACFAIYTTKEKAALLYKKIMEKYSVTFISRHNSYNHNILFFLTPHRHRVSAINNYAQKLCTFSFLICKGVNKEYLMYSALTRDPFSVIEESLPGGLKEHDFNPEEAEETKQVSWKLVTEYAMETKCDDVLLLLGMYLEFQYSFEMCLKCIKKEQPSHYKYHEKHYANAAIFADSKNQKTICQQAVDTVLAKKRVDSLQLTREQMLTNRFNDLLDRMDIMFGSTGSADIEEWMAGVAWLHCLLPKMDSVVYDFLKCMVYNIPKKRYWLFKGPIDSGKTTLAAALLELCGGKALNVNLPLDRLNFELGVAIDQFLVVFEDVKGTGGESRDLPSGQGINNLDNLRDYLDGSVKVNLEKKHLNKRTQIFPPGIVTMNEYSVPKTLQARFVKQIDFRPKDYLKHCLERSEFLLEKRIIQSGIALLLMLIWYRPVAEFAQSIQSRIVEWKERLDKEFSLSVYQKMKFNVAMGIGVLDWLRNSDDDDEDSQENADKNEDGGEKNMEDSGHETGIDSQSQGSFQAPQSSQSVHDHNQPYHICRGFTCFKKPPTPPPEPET
Chain of Disintegrin and metalloproteinase domain-containing protein 17 (P78536 whole entry, the tested form may be a part): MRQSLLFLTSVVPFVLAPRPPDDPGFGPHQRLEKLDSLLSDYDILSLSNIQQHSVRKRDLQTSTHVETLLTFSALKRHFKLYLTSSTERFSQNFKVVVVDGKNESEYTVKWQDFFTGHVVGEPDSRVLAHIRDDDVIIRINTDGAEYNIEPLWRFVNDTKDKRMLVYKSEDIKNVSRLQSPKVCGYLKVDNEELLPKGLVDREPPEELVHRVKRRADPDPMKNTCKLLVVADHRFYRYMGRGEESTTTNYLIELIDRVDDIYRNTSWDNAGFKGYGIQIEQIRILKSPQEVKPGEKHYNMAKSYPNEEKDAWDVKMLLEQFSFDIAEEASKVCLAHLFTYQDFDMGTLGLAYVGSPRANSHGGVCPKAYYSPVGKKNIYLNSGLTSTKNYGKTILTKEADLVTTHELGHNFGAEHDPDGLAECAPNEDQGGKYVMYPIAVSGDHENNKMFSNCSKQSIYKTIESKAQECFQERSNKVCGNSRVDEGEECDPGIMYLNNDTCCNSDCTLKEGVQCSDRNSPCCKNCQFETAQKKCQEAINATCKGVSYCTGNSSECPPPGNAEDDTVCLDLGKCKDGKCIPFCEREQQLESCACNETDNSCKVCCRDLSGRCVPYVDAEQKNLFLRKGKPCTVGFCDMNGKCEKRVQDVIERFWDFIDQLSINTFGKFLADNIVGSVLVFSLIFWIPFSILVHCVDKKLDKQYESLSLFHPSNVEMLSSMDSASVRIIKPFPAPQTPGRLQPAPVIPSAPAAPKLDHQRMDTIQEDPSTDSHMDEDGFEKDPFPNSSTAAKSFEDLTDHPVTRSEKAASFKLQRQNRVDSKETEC

O=C(c1ccco1)N1CCN(CCCCN2C(=O)c3ccccc3C2=O)CC1
EC50 (Mu-type opioid receptor): 92.5 µM (inactive)
EC50 [1]: 76.1 µM (inactive)

COc1ccccc1-c1ccc(SCc2cccc(F)c2)nn1
IC50 [2]: < 0.368 µM (active)
EC50 [3]: > 53 µM (inactive)
IC50 [4]: > 20 µM (inactive)

O=C(NCCc1ccccc1)c1nc2nc(-c3cccs3)cc(C(F)(F)F)n2n1
IC50 (cells [5]): 24.1 µM (inactive)
EC50 [6]: 346 nM (active)
IC50 [7]: 1.91 µM (active)
EC50 (cells [8]): > 29.9 µM (inactive)

CN=C(S)NNC(=O)c1oc2nc(-c3ccccc3)cc(-c3ccco3)c2c1N
IC50 (Albumin): > 94.1 µM (inactive)

CCN1C(=O)/C(=C2/C=Cc3cc(C)ccc3N2CC)N(C)C1=S
CC50 [9]: 100 µM (active)
IC50 [10]: 60.4 µM (active)

CC(=O)NC(Cc1cccc(C)c1)C(=O)NC1CCN(c2ncccc2[N+](=O)[O-])CC1 (stereo not given)
IC50 [2]: 5.13 µM (active)
EC50 [3]: > 53 µM (inactive)
IC50 [4]: 18.8 µM (active)

Clc1ccc(CN2CCN(c3ncccn3)CC2)c(Cl)c1
EC50 (Mu-type opioid receptor): 92.5 µM (inactive)
EC50 [1]: 1.29 µM (active)

COC(=O)c1ccc(CN2C(=O)C(C)N(C(=O)c3c(F)cccc3F)c3ccccc32)cc1 (stereo not given)
IC50 [2]: < 0.368 µM (active)
EC50 [3]: > 53 µM (inactive)
IC50 [4]: 17 µM (active)
IC50 [11]: > 69.5 µM (inactive)
IC50 [12]: > 69.5 µM (inactive)

COc1cc(C2c3cc4c(cc3OC(NCCc3ccccc3)C2C)OCO4)cc(OC)c1OC (stereo not given)
IC50 (cells [5]): > 29.9 µM (inactive)
EC50 [6]: 23.9 nM (active)
IC50 [7]: 0.261 µM (active)
EC50 (cells [8]): > 29.9 µM (inactive)

COc1cc(C(C)=O)ccc1OCC(O)CN1CCN(c2ccccn2)CC1 (stereo not given)
EC50 (Mu-type opioid receptor): 92.5 µM (inactive)
EC50 [1]: 0.321 µM (active)

CCOc1cc(/C=N/NC(=O)Nc2ccccc2)ccc1O
EC50 [13]: 16.6 µM (active)
EC50 (H4): 1.94 µM (active)
IC50 (Large T antigen): > 100 µM (active)
CC50 [9]: 100 µM (active)
IC50 [10]: 32.5 µM (active)
IC50 [14]: > 67.6 µM (inactive)
EC50 [15]: > 67.6 µM (inactive)

O=C(N/N=C/c1cc(Br)ccc1O)c1cccc(N2CCCC2=O)c1
EC50 [16]: 15.4 µM (inconclusive)
IC50 (Aminopeptidase N): 38.3 µM (active)
EC50 (cells [17]): 7.74 µM (active)
EC50 [18]: 2.33 µM (active)
EC50 (cells [19]): > 350 µM (not active)
IC50 (Albumin): > 94.1 µM (inactive)

CC(N)Cc1ccc(O)cc1 (stereo not given) [HYDROXYAMPHETAMINE HYDROBROMIDE]
IC50 (cells [5]): > 29.9 µM (inactive)
EC50 [6]: 1.71 µM (active) and 1.18 µM (active)
IC50 [7]: 11.8 µM (inactive) and 5.84 µM (active)
EC50 (cells [8]): > 29.9 µM (inactive)
